Results reported in PMC11396129, “Oxindole–benzothiazole hybrids as CDK2 inhibitors and anticancer agents: design, synthesis and biological evaluation” (BMC Chemistry, 2024).

Columns and labels:
HOP-62 = assay: NCI 60 panel growth inhibition (SRB), non-small cell lung cancer; assay type: cell-based, human; details: HOP-62, 10 μM
Method: (§1) Screening of cytotoxic activity against a panel of sixty human tumor cell lines The selected compounds by NCI were evaluated for their anticancer activity in a two- stage process. […] Then, the output from the single dose screen is reported as a mean graph. […] Assay protocol. […] For a typical screening experiment, cells are inoculated into 96 well microtiter plates in 100 µL at plating densities ranging from 5000 to 40,000 cells/well depending on the doubling time of individual cell lines. […] After 24 h, two plates of each cell line are fixed in situ with TCA, to represent a measurement of the cell population for each cell line at the time of drug addition (Tz). The experimental drugs are solubilized in dimethyl sulfoxide at 400-fold the desired final maximum test concentration and stored frozen prior to use. At the time of drug addition, an aliquot of frozen concentrate is thawed and diluted to twice the desired final maximum test concentration with complete medium containing 50 µg/mL gentamicin. Additional four, 10-fold or ½ log serial dilutions are made to provide a total of five drug concentrations plus control. […] For adherent cells, the assay is terminated by the addition of cold TCA. […] The supernatant is discarded, and the plates are washed five times with tap water and air dried. […] Using the seven absorbance measurements [time zero, (Tz), control growth, (C), and test growth in the presence of drug at the five concentration levels (Ti)], the percentage growth is calculated at each of the drug concentrations levels. Percentage growth inhibition is calculated as: [(Ti Tz)/(C–Tz)] x 100 for concentrations for which Ti>/=Tz and [(Ti-Tz)/Tz] x 100 for concentrations for which Ti < Tz. Three dose response parameters are calculated for each experimental agent. […] The drug concentration resulting in total growth inhibition (TGI) is calculated from Ti = Tz. […] Values are calculated for each of these three parameters if the level of activity is reached; however, if the effect is not reached or is exceeded, the value for that parameter is expressed as greater or less than the maximum or minimum concentration tested.

NCI-H226 = assay: as above; assay type: cell-based, human; details: NCI-H226, 10 μM
Method: as §1

NCI-H23 = assay: as above; assay type: cell-based, human; details: NCI-H23, 10 μM
Method: as §1

NCI-H460 = assay: as above; assay type: cell-based, human; details: NCI-H460, 10 μM
Method: as §1

NCI-H522 = assay: as above; assay type: cell-based, human; details: NCI-H522, 10 μM
Method: as §1

A549/ATCC = assay: as above; assay type: cell-based, human; details: 10 μM
Method: as §1

EKVX = assay: as above; assay type: cell-based, human; details: 10 μM
Method: as §1

NCI-H322M = assay: as above; assay type: cell-based, human; details: 10 μM
Method: as §1

HOP-92 = assay: as above; assay type: cell-based, human; details: HOP-92, 10 μM
Method: as §1

OVCAR-8 = assay: NCI 60 panel growth inhibition (SRB), ovarian cancer; assay type: cell-based, human; details: OVCAR-8, 10 μM
Method: as §1

IGROV1 = assay: as above; assay type: cell-based, human; details: IGROV1, 10 μM
Method: as §1

NCI/ADR-RES = assay: as above; assay type: cell-based, human; details: 10 μM
Method: as §1

OVCAR-5 = assay: as above; assay type: cell-based, human; details: OVCAR-5, 10 μM
Method: as §1

OVCAR-3 = assay: as above; assay type: cell-based, human; details: OVCAR-3, 10 μM
Method: as §1

SK-OV-3 = assay: as above; assay type: cell-based, human; details: SK-OV-3, 10 μM
Method: as §1

MDA-MB-468 = assay: NCI 60 panel growth inhibition (SRB), breast cancer; assay type: cell-based, human; details: MDA-MB-468, 10 μM
Method: as §1

MCF7 = assay: as above; assay type: cell-based, human; details: MCF7, 10 μM
Method: as §1

MDA-MB-231/ATCC = assay: as above; assay type: cell-based, human; details: 10 μM
Method: as §1

BT-549 = assay: as above; assay type: cell-based, human; details: BT-549, 10 μM
Method: as §1

T-47D = assay: as above; assay type: cell-based, human; details: 10 μM
Method: as §1

HS 578T = assay: as above; assay type: cell-based, human; details: 10 μM
Method: as §1

RPMI-8226 = assay: NCI 60 panel growth inhibition (SRB), leukemia; assay type: cell-based, human; details: RPMI-8226, 10 μM
Method: as §1

CCRF-CEM = assay: NCI 60 panel growth inhibition (SRB), leukemia; assay type: cell-based, human; details: 10 μM
Method: as §1

HL-60(TB) = assay: NCI 60 panel growth inhibition (SRB), leukemia; assay type: cell-based, human; details: HL-60(TB), 10 μM
Method: as §1

CAKI-1 = assay: NCI 60 panel growth inhibition (SRB), renal cancer; assay type: cell-based, human; details: CAKI-1, 10 μM
Method: as §1

786-0 = assay: NCI 60 panel growth inhibition (SRB), renal cancer; assay type: cell-based, human; details: 786-0, 10 μM
Method: as §1

ACHN = assay: NCI 60 panel growth inhibition (SRB), renal cancer; assay type: cell-based, human; details: 10 μM
Method: as §1

SN12C = assay: NCI 60 panel growth inhibition (SRB), renal cancer; assay type: cell-based, human; details: 10 μM
Method: as §1

UO-31 = assay: NCI 60 panel growth inhibition (SRB), renal cancer; assay type: cell-based, human; details: UO-31, 10 μM
Method: as §1

TK-10 = assay: NCI 60 panel growth inhibition (SRB), renal cancer; assay type: cell-based, human; details: TK-10, 10 μM
Method: as §1

A498 = assay: NCI 60 panel growth inhibition (SRB), renal cancer; assay type: cell-based, human; details: A498, 10 μM
Method: as §1

OVCAR-4 = assay: NCI 60 panel growth inhibition (SRB), ovarian cancer; assay type: cell-based, human; details: OVCAR-4, 10 μM
Method: as §1

RXF 393 = assay: NCI 60 panel growth inhibition (SRB), renal cancer; assay type: cell-based, human; details: RXF 393, 10 μM
Method: as §1

[1] = tested on: NCI 60 cancer cell line panel; assay: NCI 60 panel growth inhibition (SRB), whole panel; assay type: cell-based, human; details: mean over NCI 60 panel, 10 μM
Method: as §1

SMILES | GI% (HOP-62) | GI% (NCI-H226) | GI% (NCI-H23) [%] | GI% (NCI-H460) | GI% (NCI-H522) | GI% (A549/ATCC) | GI% (EKVX) | GI% (NCI-H322M) | GI% (OVCAR-8) | GI% (IGROV1) | GI% (NCI/ADR-RES) [%] | GI% (OVCAR-5) | GI% (OVCAR-3) | GI% (SK-OV-3) | GI% (MDA-MB-468) | GI% (MCF7) [%] | GI% (MDA-MB-231/ATCC) [%] | GI% (BT-549) | GI% (T-47D) [%] | GI% (HS 578T) | also measured
COc1ccc(-c2nc3ccccc3s2)cc1OCC(=O)NN=C1C(=O)Nc2ccc(C)cc21 [Compound 9n, 2-(5-(Benzo[d]thiazol-2-yl)-2-methoxyphenoxy)-N′-(5-methyl-2-oxoindolin-3-ylidene)acetohydrazide] | – (GI% < 5%) | – (GI% < 5%) | 12.32 | – (GI% < 5%) | – (GI% < 5%) | – (GI% < 5%) | – (GI% < 5%) | 10.32% | – (GI% < 5%) | – (GI% < 5%) | 14.31 | 7.10% | – (GI% < 5%) | – (GI% < 5%) | – (GI% < 5%) | 25.33 | 12.37 | – (GI% < 5%) | 13.50 | 5.72% | GI% (HOP-92): – (GI% < 5%); GI% (RPMI-8226): 14.26%; GI% (CCRF-CEM): 16.11%; GI% (HL-60(TB)): – (GI% < 5%); GI% (CAKI-1): 12.63%; GI% (786-0): 44.99%; GI% (ACHN): 8.57%; GI% (SN12C): 5.76%; GI% (UO-31): – (GI% < 5%); GI% (TK-10): – (GI% < 5%); GI% (A498): – (GI% < 5%); melting point: 224 to 226 °C
COc1cccc(-c2nc3ccccc3s2)c1OCC(=O)NN=C1C(=O)Nc2ccc(Br)cc21 [Compound 9l, 2-(2-(Benzo[d]thiazol-2-yl)-6-methoxyphenoxy)-N′-(5-bromo-2-oxoindolin-3-ylidene)acetohydrazide] | 13.44% | 12.06% | 17.03 | 5.26% | 25.73% | 17.13% | 66.66% | – (GI% < 5%) | 10.38% | 11.35% | 19.73 | – (GI% < 5%) | – (GI% < 5%) | – (GI% < 5%) | 19.79% | 35.92 | 27.34 | – (GI% < 5%) | 41.03 | – (GI% < 5%) | GI% (OVCAR-4): 11.40%; GI% (RPMI-8226): 25.41%; GI% (CCRF-CEM): 15.16%; GI% (HL-60(TB)): – (GI% < 5%); GI% (CAKI-1): 40.19%; GI% (786-0): 16.93%; GI% (RXF 393): 14.21%; GI% (ACHN): 22.74%; GI% (SN12C): 16.14%; GI% (UO-31): 30.14%; GI% (TK-10): – (GI% < 5%); GI% (A498): – (GI% < 5%); Mean GI% [1]: 12.52%; melting point: 266 to 268 °C
COc1cccc(-c2nc3ccccc3s2)c1OCC(=O)NN=C1C(=O)Nc2ccc(Cl)cc21 [Compound 9k, 2-(2-(Benzo[d]thiazol-2-yl)-6-methoxyphenoxy)-N′-(5-chloro-2-oxoindolin-3-ylidene)acetohydrazide] | 6.81% | 18.20% | 17.71 | 8.94% | 28.39% | 26.29% | 66.74% | – (GI% < 5%) | 12.69% | – (GI% < 5%) | 20.56 | 8.99% | – (GI% < 5%) | – (GI% < 5%) | 27.13% | 35.93 | 19.83 | 7.55% | 40.62 | 8.19% | GI% (OVCAR-4): 13.16%; GI% (RPMI-8226): 29.96%; GI% (CCRF-CEM): 24.47%; GI% (HL-60(TB)): 6.09%; GI% (CAKI-1): 39.78%; GI% (786-0): 22.12%; GI% (RXF 393): 37.81%; GI% (ACHN): 26.60%; GI% (SN12C): 14.00%; GI% (UO-31): 33.24%; GI% (TK-10): – (GI% < 5%); GI% (A498): – (GI% < 5%); Mean GI% [1]: 14.92%; melting point: 263 to 265 °C
